Biological target: T1, Growth factor receptor-bound protein 10 (Homo sapiens, UniProt Q13322)
T1 sequence (Q13322 whole entry): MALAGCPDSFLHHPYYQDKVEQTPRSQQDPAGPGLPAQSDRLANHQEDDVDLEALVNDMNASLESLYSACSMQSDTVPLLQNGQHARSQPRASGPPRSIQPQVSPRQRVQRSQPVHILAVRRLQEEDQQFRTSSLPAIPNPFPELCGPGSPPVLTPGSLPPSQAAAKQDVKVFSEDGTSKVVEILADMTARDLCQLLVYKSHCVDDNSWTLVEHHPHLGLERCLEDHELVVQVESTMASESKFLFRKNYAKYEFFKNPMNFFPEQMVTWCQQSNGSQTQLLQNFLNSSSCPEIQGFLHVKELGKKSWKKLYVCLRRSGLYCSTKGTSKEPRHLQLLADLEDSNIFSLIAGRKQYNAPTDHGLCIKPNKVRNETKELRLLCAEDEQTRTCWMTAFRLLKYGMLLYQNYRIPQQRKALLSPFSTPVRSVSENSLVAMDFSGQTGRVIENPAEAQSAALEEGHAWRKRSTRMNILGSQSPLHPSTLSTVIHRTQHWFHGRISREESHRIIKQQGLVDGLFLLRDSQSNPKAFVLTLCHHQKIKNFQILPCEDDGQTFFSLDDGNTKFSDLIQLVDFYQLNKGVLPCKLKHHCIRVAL
Assay: Binding affinity to GST-tagged Grb10-SH2 domain (471 to 594 amino acid residues) (unknown origin) expressed in Escherichia coli BL21 (DE3) using 20 mM Tris/1 mM NaPO4 buffer by SPR analysis; call rule not given here

- Kd: Not Active
SMILES: C[C@@H](O)[C@@H]1NC(=O)[C@H](CC(N)=O)NC(=O)[C@H](CC(=O)O)NC(=O)[C@H](Cc2ccc(O)cc2)NC(=O)CNC(=O)[C@H](CCC(=O)O)NC(=O)[C@H](Cc2ccccc2)NC(=O)[C@H](Cc2c[nH]c3ccccc23)NC(=O)CSC[C@@H](C(N)=O)NC(=O)[C@@H]2CCCN2C(=O)[C@H](Cc2ccccc2)NC1=O

Source: ChEMBL document CHEMBL3621134, “Cyclic Peptides Incorporating Phosphotyrosine Mimetics as Potent and Specific Inhibitors of the Grb7 Breast Cancer Target” (J Med Chem, 2015)
